# Assays:
# [1] = molecular target: T1, AMPK α1β1γ1 (Homo sapiens, UniProt P54619+Q13131); test: AMPK phosphotransferase assay, allosteric activation, cell-free; format: biochemical; details: 1 μM C2, ADP 0–200 μM
# T1 construct: purchased Sigma and Signalchem; host or cells: Spodoptera frugiperda (Sf9)
# Protocol: Figure 1 The AMP Analog C2 Is a Potent AMPK Activator in Cell-Free Assays with Selectivity for α1 Complexes (A) The structure of the endogenous activator of AMPK, AMP; the AMP mimetic, C2; and the classical AMP mimetic, ZMP, and other AMPK activators are shown. […] (B) Recombinant AMPK complexes (α1β1γ1, α2β1γ1, α1β1γ2, and α1β2γ1) expressed in Spodoptera frugiperda were assayed for allosteric activation by AMP or C2. Results are expressed as the increase in activity relative to controls without ligand and represent the mean ± SD for three independent experiments. (C) Enzymes allosterically regulated by AMP (PFK1 and FBP1) or using AMP as a substrate (AMPD1, AK, and 5′-NT) were assayed in the presence of C2 (≤ 100 μM). Enzymes allosterically regulated by AMP were screened for both agonism and antagonism, the latter in the presence of AMP at ≈ EC50. All enzymes were unaffected by [C2] ≤ 100 μM. Representative data are shown for the effects of AMP and C2 on PFK1 and FBP1 activity. Results are representative of three independent experiments conducted on one enzyme preparation. TEXT PRINTED IN THE PICTURE: (B) C2: α1β1γ1: EC50: 0.011 ± 0.001 μM; α2β1γ1: EC50: 0.015 ± 0.003 μM; α1β1γ2: EC50: 0.024 ± 0.004 μM; α1β2γ1: EC50: 0.015 ± 0.002 μM | (B) AMP: α1β1γ1: EC50: 3.7 ± 0.6 μM; α2β1γ1: EC50: 3.2 ± 0.2 μM; α1β1γ2: EC50: 2.5 ± 0.3 μM; α1β2γ1: EC50: 3.2 ± 0.4 μM | (C) C2: PFK1: EC50: ND; FBP1: IC50: ND | (C) AMP: PFK1: EC50: 33 ± 3 μM; FBP1: IC50: 5 ± 0.2 μM […]
# We initially compared the ability of C2 and AMP to activate various recombinant human AMPK complexes, expressed in insect cells, in cell-free assays (Figure 1B). As reported previously using rat liver complexes separated by immunoprecipitation ([Salt et al., 1998]), the allosteric activation of α1 complexes by AMP was less than that of α2 complexes. […] Similar results were obtained with other permutations of β and γ subunits in complex with α2 (data not shown). We also tested the effects of C2 and AMP on recombinant human α1β1γ1 and α2β1γ1 complexes expressed in E. coli and obtained similar results (data not shown).
# AMPK phosphotransferase activity was assayed in reactions (50 μl) containing 50 mM HEPES, pH 7.4, 10 mM MgCl2, 0.1 mM EGTA, 1 mM DTT, 0.01% BRIJ-35, 100 μM [γ-^32P]ATP (∼250 CPM⋅pmol^−1) and 200 μM AMARA (AMARAASAAALARRR). Reactions were started by the addition of AMPK (5 mU), incubated for 20 min at 30°C and quenched by spotting onto P81 and immersion in 75 mM H3PO4. Washed filters were dried and [^32P] incorporation determined by Cherenkov counting. AMPK activity in cell extracts was determined by immunoprecipitation with AMPKα1 or AMPKα2 antibodies from 50 μg material, as previously described ([Hunter et al., 2011]). […]
# [2] = system: LKB1−/− mouse embryonic fibroblasts; test: AMPK and ACC phosphorylation in LKB1-null fibroblasts; format: cell-based; details: 1 hr; AICAR 2 mM
# Protocol: AICAR (0.5 mM) was included as a positive control. Cell lysates were analyzed using western blotting with the indicated antibodies. (B) AMPKα1 or AMPKα2 complexes were immunoprecipitated from hepatocyte extracts prepared as described in (A) and assayed for kinase activity using 0.2 mM AMARA and 0.1 mM ATP. Results are expressed as the mean Pi incorporated in picomoles per minute-milligram ± SD. (C) Hepatocytes were stimulated with 30 μM C13 for the indicated times prior to harvesting, with AICAR (0.5 mM, 1 hr) as positive control. Lysates were analyzed using western blotting with the indicated antibodies. (D) Mouse hepatocytes were treated with the indicated compounds for 1 hr, and adenine nucleotide ratios were determined using capillary electrophoresis of perchloric acid extracts. […] Lysates were analyzed using western blotting with the indicated antibodies. (F) Wild-type (LKB1^+/+) or LKB1-null (LKB1^−/−) mouse embryonic fibroblasts were incubated with the indicated concentrations of C13 for 1 hr. AICAR (2 mM) was included as a positive control. Lysates were analyzed using western blotting with the indicated antibodies.
# [3] = system: β1-KO hepatocytes; test: Lipogenesis, [3H]acetate incorporation into total lipids; format: cell-based, mouse; details: 100 μM, 4 hr
# Protocol: (§1) Figure 7 C13 Activates Both β1 and β2 Complexes in Mouse Hepatocytes (A) Hepatocytes from WT, AMPKβ1^−/−, and AMPKβ2^−/− mice were incubated with the indicated concentrations of C13 for 1 hr. A769662 (100 μM) was included as a positive control. Lysates were analyzed using western blotting with the indicated antibodies. (B) Mouse hepatocytes from the indicated genotypes were treated with the indicated concentrations of C13 and labeled with [^3H]acetate for 4 hr. Lipogenesis was estimated from the incorporation of acetate into total lipids. Results are expressed as the mean acetate incorporated in micromoles per gram-hour ± SD.
# Lipid synthesis was determined by labeling adherent cultures of primary hepatocytes with [1-^14C]acetate. After overnight culture, hepatocytes (5 × 10^5) were washed with warm PBS and allowed to rest for 3 hr in fresh M199. Cells were treated with vehicle (0.1% DMSO) or the indicated compounds and labeled with 1 mCi⋅mmol^−1 [1-^14C]acetate for 3 hr. […] Lipogenesis in hepatocytes from AMPKβ1/β2-KO mice was determined in media containing [^3H]acetate (0.2 mCi⋅mmol^−1). After 4 hr labeling, total lipids were extracted using the method of [Bligh and Dyer (1959)], and incorporated [^3H] was determined by scintillation counting. The results are expressed as micromoles acetate incorporated per gram-hour.
# [4] = system: WT and β2-KO hepatocytes; test: AMPK signaling, western blotting; format: cell-based, mouse; details: 1 hr; A769662 100 μM
# Protocol: as §1
# [5] = system: β1-KO hepatocytes; test: AMPK signaling, western blotting; format: cell-based, mouse; details: 1 hr; A769662 100 μM
# Protocol: as §1
# [6] = system: mouse hepatocytes; test: Adenine nucleotide ratios by capillary electrophoresis; format: cell-based; details: 1 hr; C13 up to 100 μM
# Protocol: (§2) Figure 4 The C2 Prodrug, C13, Potently Activates AMPK in Mouse Primary Hepatocytes (A) Isolated mouse hepatocytes were incubated with vehicle or the indicated concentrations of C13 for 1 hr. AICAR (0.5 mM) was included as a positive control. Cell lysates were analyzed using western blotting with the indicated antibodies. (B) AMPKα1 or AMPKα2 complexes were immunoprecipitated from hepatocyte extracts prepared as described in (A) and assayed for kinase activity using 0.2 mM AMARA and 0.1 mM ATP. Results are expressed as the mean Pi incorporated in picomoles per minute-milligram ± SD. (C) Hepatocytes were stimulated with 30 μM C13 for the indicated times prior to harvesting, with AICAR (0.5 mM, 1 hr) as positive control. Lysates were analyzed using western blotting with the indicated antibodies. (D) Mouse hepatocytes were treated with the indicated compounds for 1 hr, and adenine nucleotide ratios were determined using capillary electrophoresis of perchloric acid extracts. (E) Mouse hepatocytes were preincubated with 30 μM STO-609 for 30 min prior to stimulation with 30 μM C13 for 1 hr or with 1 μM ionomycin for 30 min. Lysates were analyzed using western blotting with the indicated antibodies. (F) Wild-type (LKB1^+/+) or LKB1-null (LKB1^−/−) mouse embryonic fibroblasts were incubated with the indicated concentrations of C13 for 1 hr. AICAR (2 mM) was included as a positive control. Lysates were analyzed using western blotting with the indicated antibodies. Results are representative of three independent experiments. […]
# Isolation of primary hepatocytes. Hepatocytes were isolated from fasted mice by collagenase digestion (Berry and Friend, 1969). Cells were seeded in M199 containing 100 U/ml penicillin G, 100 µg/ml streptomycin, 0.1 % (w/v) BSA, 10 % (v/v) FBS, 10 nM insulin, 200 nM triiodothyronine and 100 nM dexamethasone. […]
# Nucleotide measurements. […] Nucleotides were separated and quantified by capillary electrophoresis using a Beckman P/ACE instrument as previously described (Hawley, et al., 2010).
# [7] = system: AMPK signaling in mouse primary hepatocytes; test: AMPK signaling in primary hepatocytes, western blotting; format: cell-based; details: 30 μM STO-609 for 30 min, 1 μM ionomycin
# Protocol: as §2
# Isolation of primary hepatocytes. Hepatocytes were isolated from fasted mice by collagenase digestion (Berry and Friend, 1969). Cells were seeded in M199 containing 100 U/ml penicillin G, 100 µg/ml streptomycin, 0.1 % (w/v) BSA, 10 % (v/v) FBS, 10 nM insulin, 200 nM triiodothyronine and 100 nM dexamethasone. Post attachment (3-4 h), cells were cultured overnight in M199 supplemented with antibiotics and 100 nM dexamethasone and used for experiments the following morning.
# Western blotting. Cells were stimulated as indicated, rinsed with ice-cold PBS and lysed with 50 mM tris pH 7.5, 1 mM EDTA, 1 mM EGTA, 0.27 M sucrose, 1 % (w/v) Triton X-100, 20 mM glycerol-2-phosphate, 50 mM NaF, 5 mM Na4P2O7, 1 mM Na3VO4, 1 mM DTT, 0.5 mM PMSF, 1 mM benzamidine and 1 µM microcystin-LR. Lysates were clarified at 3000 g for 5 min at 4 °C and normalised using Bradford reagent and BSA as standard. Lysates (20 µg) were denatured in Laemlli buffer, separated on 7.5 % tris-glycine gels and transferred to PVDF in Towbin buffer. Membranes were blocked in 5 % (w/v) milk for 1 h at RT and incubated overnight in the indicated primary antibodies at 4 °C. Membranes were developed using HRP-conjugated antibodies and ECL reagent.
# Nucleotide measurements. Cultured hepatocytes were incubated with the indicated compounds and washed with ice-cold 0.9 % (w/v) saline before extraction in 5 % perchloric acid. Precipitated material was removed by centrifugation (13,000 RPM, 3 min) and supernatant neutralised with 1:1 trioctylamine:Freon-113 (Khym, 1975). Nucleotides were separated and quantified by capillary electrophoresis using a Beckman P/ACE instrument as previously described (Hawley, et al., 2010).
# T1 sequence (Q13131 whole entry): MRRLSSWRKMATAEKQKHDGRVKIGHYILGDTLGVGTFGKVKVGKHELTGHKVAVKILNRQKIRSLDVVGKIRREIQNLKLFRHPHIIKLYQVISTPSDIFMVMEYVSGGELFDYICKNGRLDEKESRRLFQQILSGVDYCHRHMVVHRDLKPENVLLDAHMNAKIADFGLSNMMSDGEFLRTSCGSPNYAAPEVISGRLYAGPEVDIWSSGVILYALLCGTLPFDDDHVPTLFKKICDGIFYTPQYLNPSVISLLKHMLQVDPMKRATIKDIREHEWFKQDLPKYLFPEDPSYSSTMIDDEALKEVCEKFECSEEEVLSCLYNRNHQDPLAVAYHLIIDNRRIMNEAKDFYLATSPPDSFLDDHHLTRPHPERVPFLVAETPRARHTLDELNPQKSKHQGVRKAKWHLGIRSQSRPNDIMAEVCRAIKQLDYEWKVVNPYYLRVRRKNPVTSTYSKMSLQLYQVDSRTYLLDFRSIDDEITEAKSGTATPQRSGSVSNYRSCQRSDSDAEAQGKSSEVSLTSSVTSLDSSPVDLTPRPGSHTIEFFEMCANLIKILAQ
# T1 sequence (Q9Y478 whole entry partner): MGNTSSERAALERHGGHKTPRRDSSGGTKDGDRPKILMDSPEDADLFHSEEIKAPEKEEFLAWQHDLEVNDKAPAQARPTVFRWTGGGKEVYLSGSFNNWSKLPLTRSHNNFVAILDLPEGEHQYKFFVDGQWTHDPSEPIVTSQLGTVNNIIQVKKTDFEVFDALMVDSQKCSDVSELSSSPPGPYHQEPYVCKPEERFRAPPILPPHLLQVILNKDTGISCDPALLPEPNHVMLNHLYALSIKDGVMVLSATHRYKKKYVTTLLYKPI
# T1 sequence (P54619 whole entry): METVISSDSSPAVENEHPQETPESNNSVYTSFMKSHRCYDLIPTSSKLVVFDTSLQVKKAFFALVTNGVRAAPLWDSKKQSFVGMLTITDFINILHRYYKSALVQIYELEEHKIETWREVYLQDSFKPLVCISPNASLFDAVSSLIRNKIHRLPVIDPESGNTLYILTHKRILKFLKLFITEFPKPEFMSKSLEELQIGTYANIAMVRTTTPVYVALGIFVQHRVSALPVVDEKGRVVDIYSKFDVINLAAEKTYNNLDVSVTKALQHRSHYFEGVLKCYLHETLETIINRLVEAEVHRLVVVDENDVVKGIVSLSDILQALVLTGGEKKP
compound,measurement,setting,value
"Nc1ncnc2c1ncn2[C@@H]1O[C@H](COP(=O)(O)OP(=O)(O)O)[C@@H](O)[C@H]1O [ADP, reference compound]",effect on activation by C2,[1],antagonized
"NC(=O)c1ncn([C@@H]2O[C@H](CO)[C@@H](O)[C@H]2O)c1N [AICAR, 5-aminoimidazole-4-carboxamide riboside, reference compound]",compound-induced phosphorylation of AMPK and ACC,[2],abolished
"N#Cc1c(O)c2c(-c3ccc(-c4ccccc4O)cc3)csc2[nH]c1=O [Compound A769662, reference compound]",suppression of lipogenesis,[3],failed to suppress lipogenesis
same,"phosphorylation of Thr172 and ACC, as well as Raptor",[4],robustly stimulated
same,stimulation of AMPK (Thr172 phosphorylation),[5],failed to stimulate
OO [Compound H2O2],ADP:ATP and AMP:ATP ratios,[6],increased
"O=[N+]([O-])c1ccc(O)c([N+](=O)[O-])c1 [DNP, 2,4-dinitrophenol]",ADP:ATP and AMP:ATP ratios,[6],increased
"O=C(O)c1ccc2c3c1cccc3c(=O)n1c3ccccc3nc21 [STO-609, reference compound]",phosphorylation of AMPK and ACC by ionomycin after prior incubation,[7],almost completely abolished

# From publication PMC4104029, “Mechanism of Action of Compound-13: An α1-Selective Small Molecule Activator of AMPK” (Chemistry & Biology, 2014)
